Here are results for seven molecules from patent publication US9260438B2, “Solid forms of tofacitinib salts” (APOTEX INC., priority 2014, dated 2016).

Data set [1] in a line: Solubility of solid forms in water (visual dissolution). The settings on record: deionized water added drop-wise with agitation until visual dissolution of the solid; hydrochloride.
Another data set is described as follows: physchem. The settings on record: thermodynamic from solid.

Where a name gives a salt, the structure may show the parent alone.

The Solubility is the concentration that dissolves in the medium under given conditions. Low values mean a poorly soluble substance, high ones a readily soluble substance. Take `C[C@@H]1CCN(C(=O)CC#N)C[C@@H]1N(C)c1ncnc2[nH]ccc12` [Tofacitinib hydrochloride (APO-C), tofacitinib hydrochloride]: in data set [1], the Solubility is 2235 mg/mL. `C[C@@H]1CCN(C(=O)CC#N)C[C@@H]1N(C)c1ncnc2[nH]ccc12` [Tofacitinib hydrochloride (APO-D), tofacitinib hydrochloride] gave a Solubility in data set [1] of 2145 mg/mL. The Solubility values of the last two molecules are within 1.5-fold of each other. Turning to `C[C@@H]1CCN(C(=O)CC#N)C[C@@H]1N(C)c1ncnc2[nH]ccc12` [Tofacitinib hydrochloride (APO-G), tofacitinib hydrochloride], the Solubility in data set [1] was determined as 2000 mg/mL. This Solubility and that of the molecule before are within 1.5-fold of each other.

Turning to `C[C@@H]1CCN(C(=O)CC#N)C[C@@H]1N(C)c1ncnc2[nH]ccc12` [Tofacitinib hydrochloride (APO-E), tofacitinib hydrochloride], the Solubility in data set [1] is listed as 2235 mg/mL. `C[C@@H]1CCN(C(=O)CC#N)C[C@@H]1N(C)c1ncnc2[nH]ccc12.O=C(O)CC(O)(CC(=O)O)C(=O)O` [Tofacitinib citrate, 3-{(3R,4R)-4-methyl-3-[methyl-(7H-pyrrolo[2,3-d]pyrimidin-4-yl)-amino]-piperidin-1-yl}-3-oxo-propionitrile mono-citrate salt, reference compound] came in with a Solubility in “physchem” (water) of about 2 mg/mL. Take `C[C@@H]1CCN(C(=O)CC#N)C[C@@H]1N(C)c1ncnc2[nH]ccc12` [Tofacitinib hydrochloride (APO-B), tofacitinib hydrochloride]: the Solubility in data set [1] is given as 2294 mg/mL. Turning to `C[C@@H]1CCN(C(=O)CC#N)C[C@@H]1N(C)c1ncnc2[nH]ccc12` [Tofacitinib hydrochloride (APO-A), tofacitinib hydrochloride], the Solubility in “physchem” (deionized water) was 2500 mg/mL.
